These results are taken from article PMC7322745 (Journal of Ginseng Research, 2019).

This data set is classed as in vivo, human. As to conditions: for Tmax: both, human, serum, oral, 3 g, mean Tmax, all participants (RG and FRG groups together).

Take `CC(C)=CCC[C@](C)(O[C@@H]1O[C@H](CO)[C@@H](O)[C@H](O)[C@H]1O)[C@H]1CC[C@]2(C)[C@@H]1[C@H](O)C[C@@H]1[C@@]3(C)CC[C@H](O[C@@H]4O[C@H](CO)[C@@H](O)[C@H](O)[C@H]4O)C(C)(C)[C@@H]3CC[C@]12C` [F2, ginsenoside F2]: the Tmax was determined as 9.32 ± 3.38 h. Moreover, the “AUC in the FRG group relative to the RG group” value (mean AUC, FRG group vs RG group) is recorded as “more than six”.

For the molecule `CC(C)=CCC[C@](C)(O[C@@H]1O[C@H](CO)[C@@H](O)[C@H](O)[C@H]1O)[C@H]1CC[C@]2(C)[C@@H]1[C@H](O)C[C@@H]1[C@@]3(C)CC[C@H](O[C@@H]4O[C@H](CO)[C@@H](O)[C@H](O)[C@H]4O[C@@H]4O[C@H](CO)[C@@H](O)[C@H](O)[C@H]4O)C(C)(C)[C@@H]3CC[C@]12C` [Rd, ginsenoside Rd], the Tmax stood at 9.41 ± 4.42 h.

The Tmax is the time from dosing to the highest level.
